Source: ChEMBL document CHEMBL5143623, “Discovery of novel spiro compound as RAF kinase inhibitor with in vitro potency against KRAS mutant cancer” (Bioorg Med Chem Lett, 2022)
Converted amounts (≈) assume the structure as drawn. The source made the active and inactive calls. No cut-off for these calls is given here.

Key:
[1] = target: RAF proto-oncogene serine/threonine-protein kinase (Homo sapiens, UniProt P04049); assay: Inhibition of human recombinant cRAF measured after 1 hr by TR-FRET assay
Sequence of RAF proto-oncogene serine/threonine-protein kinase (P04049 whole entry): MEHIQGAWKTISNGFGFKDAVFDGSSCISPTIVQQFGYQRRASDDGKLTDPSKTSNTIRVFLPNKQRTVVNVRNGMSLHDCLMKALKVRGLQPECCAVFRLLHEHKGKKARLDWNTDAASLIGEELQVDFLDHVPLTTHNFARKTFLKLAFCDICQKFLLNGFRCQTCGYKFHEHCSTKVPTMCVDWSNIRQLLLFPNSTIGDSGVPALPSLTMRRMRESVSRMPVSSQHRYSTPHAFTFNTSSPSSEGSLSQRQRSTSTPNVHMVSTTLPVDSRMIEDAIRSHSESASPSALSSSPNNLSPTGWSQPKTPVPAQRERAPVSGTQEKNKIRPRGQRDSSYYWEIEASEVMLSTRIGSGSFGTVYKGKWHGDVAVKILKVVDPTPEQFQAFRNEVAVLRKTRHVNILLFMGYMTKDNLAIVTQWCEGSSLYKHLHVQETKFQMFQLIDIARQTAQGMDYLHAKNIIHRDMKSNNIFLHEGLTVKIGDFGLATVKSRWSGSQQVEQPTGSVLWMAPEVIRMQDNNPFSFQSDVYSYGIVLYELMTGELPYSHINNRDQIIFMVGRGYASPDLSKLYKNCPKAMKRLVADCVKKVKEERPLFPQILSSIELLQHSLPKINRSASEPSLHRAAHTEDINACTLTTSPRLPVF

[2] = tested on: NCI-H358; assay: Growth inhibition of human H358 cells expressing KRAS […] mutant measured after 3 days by Cell-titer Glo assay; type: functional; conditions: NCI-H358, 72 h, time 3 day
[3] = tested on: NCI-H358; assay: Effect on Erk signalling pathway in human H358 cells assessed as increase in Erk phosphorylation by HTRF assay; type: functional, cell-based
[4] = target: Serine/threonine-protein kinase B-raf (Homo sapiens, UniProt P15056); assay: Inhibition of human recombinant wild-type bRAF measured after 1 hr by TR-FRET assay
[5] = target: Serine/threonine-protein kinase B-raf (Homo sapiens, UniProt P15056, V600E); assay: Inhibition of human recombinant bRAF […] mutant measured after 1 hr by TR-FRET assay
Sequence of Serine/threonine-protein kinase B-raf (Homo sapiens, UniProt P15056, V600E) (P15056 2-766 V600E limits assumed): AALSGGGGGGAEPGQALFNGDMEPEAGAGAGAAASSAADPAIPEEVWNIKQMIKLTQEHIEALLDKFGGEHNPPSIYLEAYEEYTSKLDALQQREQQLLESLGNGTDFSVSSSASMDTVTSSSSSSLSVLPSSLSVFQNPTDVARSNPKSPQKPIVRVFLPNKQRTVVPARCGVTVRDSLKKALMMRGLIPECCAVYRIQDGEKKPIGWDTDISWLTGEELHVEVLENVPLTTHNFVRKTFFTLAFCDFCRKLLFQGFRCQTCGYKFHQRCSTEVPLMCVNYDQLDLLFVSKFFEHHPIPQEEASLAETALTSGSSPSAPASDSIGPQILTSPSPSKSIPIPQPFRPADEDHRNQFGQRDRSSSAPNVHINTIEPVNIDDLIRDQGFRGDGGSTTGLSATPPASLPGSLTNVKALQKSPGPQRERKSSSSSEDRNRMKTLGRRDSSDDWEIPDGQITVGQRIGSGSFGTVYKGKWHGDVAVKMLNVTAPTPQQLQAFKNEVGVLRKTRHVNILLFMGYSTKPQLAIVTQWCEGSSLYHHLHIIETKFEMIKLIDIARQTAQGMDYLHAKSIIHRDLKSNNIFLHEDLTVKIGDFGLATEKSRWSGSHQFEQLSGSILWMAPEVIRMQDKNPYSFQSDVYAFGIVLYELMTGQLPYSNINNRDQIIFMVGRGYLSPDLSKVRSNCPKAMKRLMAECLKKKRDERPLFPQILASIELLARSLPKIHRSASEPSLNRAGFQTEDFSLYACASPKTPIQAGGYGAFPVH

[6] = tested on: A-375; assay: Growth inhibition of human A375 cells expressing bRaf V600E mutant measured after 3 days by Cell-titer Glo assay; type: functional; conditions: A-375, 72 h, time 3 day
[7] = tested on: Calu-6; assay: Growth inhibition of human Calu-6 cells expressing KRAS Q61K mutant measured after 3 days by Cell-titer Glo assay; type: functional; conditions: Calu-6, 72 h, time 3 day
[8] = target: T1, Cytochrome P450 1A2 (Homo sapiens, UniProt P05177); assay: Inhibition of CYP1A2 in human liver microsomes; type: ADME, Microsome
T1 sequence (P05177 whole entry): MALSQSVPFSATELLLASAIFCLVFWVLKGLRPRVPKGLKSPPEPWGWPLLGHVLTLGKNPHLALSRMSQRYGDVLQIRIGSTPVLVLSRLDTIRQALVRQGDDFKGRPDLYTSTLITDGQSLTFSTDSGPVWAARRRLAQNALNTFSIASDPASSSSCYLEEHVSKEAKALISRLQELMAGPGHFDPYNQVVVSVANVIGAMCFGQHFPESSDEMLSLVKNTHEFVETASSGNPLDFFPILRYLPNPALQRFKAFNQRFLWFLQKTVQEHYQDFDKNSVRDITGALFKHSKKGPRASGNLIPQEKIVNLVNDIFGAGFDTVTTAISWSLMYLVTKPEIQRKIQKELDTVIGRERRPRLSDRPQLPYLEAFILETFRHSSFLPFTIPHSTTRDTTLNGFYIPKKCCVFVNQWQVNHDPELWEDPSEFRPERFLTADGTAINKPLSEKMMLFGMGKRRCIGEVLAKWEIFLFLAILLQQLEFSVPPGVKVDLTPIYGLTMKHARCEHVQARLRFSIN

[9] = target: Cytochrome P450 2C9 (Homo sapiens, UniProt P11712); assay: Inhibition of CYP2C9 in human liver microsomes; type: ADME, Microsome
Sequence of Cytochrome P450 2C9 (P11712 whole entry): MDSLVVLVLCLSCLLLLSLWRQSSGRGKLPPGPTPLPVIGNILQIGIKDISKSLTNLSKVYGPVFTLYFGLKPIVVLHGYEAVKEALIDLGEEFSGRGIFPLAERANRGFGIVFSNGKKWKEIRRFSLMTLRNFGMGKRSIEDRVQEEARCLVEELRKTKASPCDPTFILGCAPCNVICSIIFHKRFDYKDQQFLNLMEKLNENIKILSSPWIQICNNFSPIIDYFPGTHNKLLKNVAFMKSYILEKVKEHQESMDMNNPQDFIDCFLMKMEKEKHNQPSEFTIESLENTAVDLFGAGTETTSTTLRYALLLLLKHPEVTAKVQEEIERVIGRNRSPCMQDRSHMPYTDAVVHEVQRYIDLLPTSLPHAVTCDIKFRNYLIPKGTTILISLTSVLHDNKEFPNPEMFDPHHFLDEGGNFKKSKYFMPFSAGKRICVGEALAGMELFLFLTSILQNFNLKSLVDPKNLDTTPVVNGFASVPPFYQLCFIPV

[10] = target: Cytochrome P450 2C19 (Homo sapiens, UniProt P33261); assay: Inhibition of CYP2C19 in human liver microsomes; type: ADME, Microsome
Sequence of Cytochrome P450 2C19 (P33261 whole entry): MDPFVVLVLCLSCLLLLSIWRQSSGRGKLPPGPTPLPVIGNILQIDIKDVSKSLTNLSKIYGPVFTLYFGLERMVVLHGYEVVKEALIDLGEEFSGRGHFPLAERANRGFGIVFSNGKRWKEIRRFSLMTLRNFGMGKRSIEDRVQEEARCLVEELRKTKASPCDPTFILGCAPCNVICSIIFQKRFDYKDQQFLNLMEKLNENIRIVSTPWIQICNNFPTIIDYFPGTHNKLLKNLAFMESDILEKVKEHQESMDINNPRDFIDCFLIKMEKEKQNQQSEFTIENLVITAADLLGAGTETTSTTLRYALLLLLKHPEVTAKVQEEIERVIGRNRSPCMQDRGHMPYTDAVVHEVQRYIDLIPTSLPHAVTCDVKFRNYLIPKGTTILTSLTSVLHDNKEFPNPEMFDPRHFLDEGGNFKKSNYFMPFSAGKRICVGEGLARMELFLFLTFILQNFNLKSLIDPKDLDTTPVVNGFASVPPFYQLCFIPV

[11] = target: Cytochrome P450 2D6 (Homo sapiens, UniProt P10635); assay: Inhibition of CYP2D6 in human liver microsomes; set-up: species or system Microsome
Sequence of Cytochrome P450 2D6 (P10635 whole entry): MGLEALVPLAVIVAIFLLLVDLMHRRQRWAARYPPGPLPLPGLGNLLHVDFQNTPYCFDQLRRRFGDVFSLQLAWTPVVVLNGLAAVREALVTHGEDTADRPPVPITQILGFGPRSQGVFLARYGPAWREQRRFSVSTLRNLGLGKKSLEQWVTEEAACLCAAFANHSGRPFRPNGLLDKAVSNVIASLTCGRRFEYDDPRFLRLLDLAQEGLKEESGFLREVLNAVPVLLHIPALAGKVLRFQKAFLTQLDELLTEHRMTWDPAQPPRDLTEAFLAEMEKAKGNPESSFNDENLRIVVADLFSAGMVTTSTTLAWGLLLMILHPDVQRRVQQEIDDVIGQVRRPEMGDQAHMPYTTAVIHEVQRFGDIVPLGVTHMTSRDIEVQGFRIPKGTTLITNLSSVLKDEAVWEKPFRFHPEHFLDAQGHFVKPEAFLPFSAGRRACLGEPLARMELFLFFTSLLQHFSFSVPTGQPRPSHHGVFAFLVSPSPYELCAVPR

[12] = target: T2, Cytochrome P450 3A4 (Homo sapiens, UniProt P08684); assay: Inhibition of CYP3A4 in human liver microsomes using midazolam as substrate; set-up: species or system Microsome
T2 sequence (P08684 whole entry): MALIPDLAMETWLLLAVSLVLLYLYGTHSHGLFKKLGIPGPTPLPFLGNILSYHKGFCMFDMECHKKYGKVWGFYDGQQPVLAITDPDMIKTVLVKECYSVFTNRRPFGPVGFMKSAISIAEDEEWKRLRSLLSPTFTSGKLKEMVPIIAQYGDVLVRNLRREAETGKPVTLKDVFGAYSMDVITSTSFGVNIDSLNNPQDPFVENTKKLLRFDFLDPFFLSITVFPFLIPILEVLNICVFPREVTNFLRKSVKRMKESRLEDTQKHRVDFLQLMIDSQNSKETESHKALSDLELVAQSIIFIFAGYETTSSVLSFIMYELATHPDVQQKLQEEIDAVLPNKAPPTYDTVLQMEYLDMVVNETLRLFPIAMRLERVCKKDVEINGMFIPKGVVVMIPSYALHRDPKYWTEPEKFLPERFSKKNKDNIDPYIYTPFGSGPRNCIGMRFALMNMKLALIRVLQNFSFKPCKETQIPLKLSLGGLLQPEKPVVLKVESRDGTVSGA

[13] = target: T2, Cytochrome P450 3A4; assay: Inhibition of CYP3A4 in human liver microsomes using testosterone as substrate; set-up: species or system Microsome
[14] = Stability of compound in human liver microsomes assessed as half life; type: ADME, Microsome
[15] = Stability of compound in mouse liver microsomes assessed as half life; type: ADME, Microsome
[16] = Stability of compound in rat liver microsomes assessed as half life; type: ADME, Microsome
[17] = Stability of compound in Dog liver microsomes assessed as half life; type: ADME, Canis lupus familiaris, Microsome
[18] = Hepatic clearance in human liver microsomes; type: ADME, Microsome
[19] = Hepatic clearance in mouse liver microsomes; type: ADME, Microsome
[20] = Hepatic clearance in rat liver microsomes; type: ADME, Microsome
[21] = Hepatic clearance in dog liver microsomes; type: ADME, Canis lupus familiaris, Microsome
[22] = Solubility of compound in PBS at pH 7.4; type: physicochemical
[23] = target: Voltage-gated inwardly rectifying potassium channel KCNH2 (Homo sapiens, UniProt Q12809); assay: Inhibition of hERG; type: toxicity
Sequence of Voltage-gated inwardly rectifying potassium channel KCNH2 (Q12809 whole entry): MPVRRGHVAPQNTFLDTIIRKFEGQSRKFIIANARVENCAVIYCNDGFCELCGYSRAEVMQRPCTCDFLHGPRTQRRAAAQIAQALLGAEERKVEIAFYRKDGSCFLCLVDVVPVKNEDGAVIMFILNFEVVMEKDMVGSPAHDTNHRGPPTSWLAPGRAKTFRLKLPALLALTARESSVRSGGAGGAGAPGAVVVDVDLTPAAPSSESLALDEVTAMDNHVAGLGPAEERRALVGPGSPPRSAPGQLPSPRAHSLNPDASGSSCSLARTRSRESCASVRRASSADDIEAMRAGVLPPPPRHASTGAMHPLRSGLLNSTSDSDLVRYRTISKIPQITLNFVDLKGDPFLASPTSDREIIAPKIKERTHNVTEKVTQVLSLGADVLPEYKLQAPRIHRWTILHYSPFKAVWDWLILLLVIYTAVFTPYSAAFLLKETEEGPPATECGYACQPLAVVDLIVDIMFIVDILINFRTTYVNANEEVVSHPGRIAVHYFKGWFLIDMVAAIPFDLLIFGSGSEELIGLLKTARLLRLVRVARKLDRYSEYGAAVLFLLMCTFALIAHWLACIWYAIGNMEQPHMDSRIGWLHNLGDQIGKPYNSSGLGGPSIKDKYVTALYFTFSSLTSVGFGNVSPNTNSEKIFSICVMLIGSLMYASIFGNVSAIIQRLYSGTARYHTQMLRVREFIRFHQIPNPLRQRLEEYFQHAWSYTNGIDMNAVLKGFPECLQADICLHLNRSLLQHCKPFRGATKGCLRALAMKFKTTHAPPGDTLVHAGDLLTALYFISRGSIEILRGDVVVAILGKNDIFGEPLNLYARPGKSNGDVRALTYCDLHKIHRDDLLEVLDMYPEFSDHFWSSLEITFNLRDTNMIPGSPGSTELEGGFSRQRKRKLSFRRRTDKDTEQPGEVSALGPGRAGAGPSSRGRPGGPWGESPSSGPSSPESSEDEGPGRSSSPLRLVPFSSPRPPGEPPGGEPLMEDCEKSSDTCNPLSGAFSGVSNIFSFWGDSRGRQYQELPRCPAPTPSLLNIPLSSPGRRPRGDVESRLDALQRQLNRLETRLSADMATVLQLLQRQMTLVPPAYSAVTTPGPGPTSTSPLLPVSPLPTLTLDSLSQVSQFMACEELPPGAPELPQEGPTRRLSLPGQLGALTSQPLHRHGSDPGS

[24] = Permeability of compound by PAMPA assay; type: ADME; conditions: read-out: permeability
[25] = AUC(0 to t) in rat at 1 mg/kg, iv by LC-MS/MS analysis; type: ADME, organism-based; set-up: dose 1 mg/kg, route iv; conditions: in vivo
[26] = Half life in rat at 1 mg/kg, iv by LC-MS/MS analysis; type: ADME, organism-based; conditions: in vivo
[27] = Clearance in rat at 1 mg/kg, iv by LC-MS/MS analysis; type: ADME, organism-based; conditions: in vivo
[28] = Volume of distribution in rat at 1 mg/kg, iv by LC-MS/MS analysis; type: ADME, organism-based; conditions: in vivo
[29] = MRT (0 to infinity) in rat at 1 mg/kg, iv by LC-MS/MS analysis; type: ADME, organism-based; conditions: in vivo
[30] = AUC(0 to t) in rat at 2 mg/kg, po by LC-MS/MS analysis; type: ADME, organism-based; set-up: dose 2 mg/kg, route po; conditions: in vivo
[31] = Half life in rat at 2 mg/kg, po by LC-MS/MS analysis; type: ADME, organism-based; conditions: in vivo
[32] = MRT (0 to infinity) in rat at 2 mg/kg, po by LC-MS/MS analysis; type: ADME, organism-based; conditions: in vivo
[33] = Tmax in rat at 2 mg/kg, po by LC-MS/MS analysis; type: ADME, organism-based; conditions: in vivo
[34] = Cmax in rat at 2 mg/kg, po by LC-MS/MS analysis; type: ADME, organism-based; set-up: dose 2 mg/kg, route po; conditions: in vivo
[35] = Oral bioavailability in rat at 2 mg/kg by LC-MS/MS analysis; type: ADME, organism-based; conditions: in vivo
[36] = AUC(0 to t) in mouse at 1 mg/kg, iv by LC-MS/MS analysis; type: ADME, organism-based; set-up: dose 1 mg/kg, route iv; conditions: in vivo
[37] = Half life in mouse at 1 mg/kg, iv by LC-MS/MS analysis; type: ADME, organism-based; conditions: in vivo
[38] = Clearance in mouse at 1 mg/kg, iv by LC-MS/MS analysis; type: ADME, organism-based; conditions: in vivo
[39] = Volume of distribution in mouse at 1 mg/kg, iv by LC-MS/MS analysis; type: ADME, organism-based; conditions: in vivo
[40] = MRT (0 to infinity) in mouse at 1 mg/kg, iv by LC-MS/MS analysis; type: ADME, organism-based; conditions: in vivo
[41] = AUC(0 to t) in mouse at 2 mg/kg, po by LC-MS/MS analysis; type: ADME, organism-based; set-up: dose 2 mg/kg, route po; conditions: in vivo
[42] = Half life in mouse at 2 mg/kg, po by LC-MS/MS analysis; type: ADME, organism-based; conditions: in vivo
[43] = MRT (0 to infinity) in mouse at 2 mg/kg, po by LC-MS/MS analysis; type: ADME, organism-based; conditions: in vivo
[44] = Tmax in mouse at 2 mg/kg, po by LC-MS/MS analysis; type: ADME, organism-based; conditions: in vivo
[45] = Cmax in mouse at 2 mg/kg, po by LC-MS/MS analysis; type: ADME, organism-based; set-up: dose 2 mg/kg, route po; conditions: in vivo
[46] = Oral bioavailability in mouse at 2 mg/kg by LC-MS/MS analysis; type: ADME, organism-based; conditions: in vivo

## Cc1ccc(NC(=O)c2ccnc(C(F)(F)F)c2)cc1-c1ccc2c(c1)OC1(CCS(=O)(=O)CC1)NC2=O
[1]
  IC50: 0.005 µM
[2]
  GI50: 7.3 µM

## Cc1ccc(NC(=O)c2ccnc(C(F)(F)F)c2)cc1-c1ccc2c(c1)SC1(CCOCC1)CC2=O
[1]
  IC50: 0.029 µM
[2]
  GI50: 7.9 µM

## Cc1ccc(NC(=O)c2ccnc(C(F)(F)F)c2)cc1-c1ccc2c(c1)OC1(CCOCC1)NC2=O
[1]
  IC50: 0.0038 µM
[2]
  GI50: 3.4 µM
[3]
  Activity: Active
[4]
  IC50: 0.036 µM
[5]
  IC50: 0.0294 µM
[6]
  GI50: 2.9 µM
[7]
  GI50: 3.9 µM
[8]
  IC50: > 30 µM
[9]
  IC50: > 30 µM
[10]
  IC50: > 30 µM
[11]
  IC50: > 30 µM
[12]
  IC50: > 30 µM
[13]
  IC50: > 30 µM
[14]
  half-life: 0.485 h
[15]
  half-life: 1.02 h
[16]
  half-life: 0.783 h
[17]
  half-life: > 2.32 h
[18]
  CLH: 13.7 µL/min/g
[19]
  CLH: 45 µL/min/g
[20]
  CLH: 32.7 µL/min/g
[21]
  CLH: < 9.6 µL/min/g
[22]
  solubility: 0.7 µM (≈ 0.348 µg/mL)
[23]
  IC50: 5.9 µM
[24]
  Papp: < 0.018 ×10⁻⁶ cm/s
[25]
  AUC(0-t): 1120 ng·h/mL
[26]
  half-life: 4.39 h
[27]
  clearance: 15 mL/min/kg
[28]
  Vd: 5.59 L/kg
[29]
  MRT inf: 4.35 h
[30]
  AUC(0-t): 517 ng·h/mL
[31]
  half-life: 4.57 h
[32]
  MRT inf: 8.14 h
[33]
  Tmax: 4 h
[34]
  Cmax: 52.1 ng/mL
[35]
  bioavailability: 24%
[36]
  AUC(0-t): 688 ng·h/mL
[37]
  half-life: 2.81 h
[38]
  clearance: 24.2 mL/min/kg
[39]
  Vd: 5.87 L/kg
[40]
  MRT inf: 1.74 h
[41]
  AUCt: 546 ng·h/mL
[42]
  t1/2: 1.91 h
[43]
  MRT inf: 3.59 h
[44]
  Tmax: 1 h
[45]
  Cmax: 1.48 ng/mL
[46]
  bioavailability: 40%

## Cc1ccc(NC(=O)c2ccnc(C(F)(F)F)c2)cc1-c1ccc2c(c1)OC1(CCCOC1)NC2=O (stereo unspecified)
[1]
  IC50: 0.005 µM
[2]
  GI50: 4.9 µM

## Cc1ccc(NC(=O)c2ccnc(C(F)(F)F)c2)cc1-c1ccc2c(c1)OC1(CCNCC1)NC2=O
[1]
  IC50: 0.019 µM
[2]
  GI50: 15 µM

## Cc1ccc(NC(=O)c2ccnc(C(F)(F)F)c2)cc1-c1ccc2c(c1)OC1(CCOCC1)C(=O)N2
[1]
  IC50: 0.014 µM
[2]
  GI50: 10 µM

## Cc1ccc(NC(=O)c2ccnc(C(F)(F)F)c2)cc1-c1ccc2c(c1)OC1(CCOCC1)CC2=O
[1]
  IC50: 0.015 µM
[2]
  GI50: 4.2 µM
[3]
  Activity: Active
[8]
  IC50: > 30 µM
[9]
  IC50: > 30 µM
[10]
  IC50: > 30 µM
[11]
  IC50: > 30 µM
[12]
  IC50: > 30 µM
[13]
  IC50: > 30 µM
[14]
  half-life: 0.135 h
[15]
  half-life: 0.468 h
[16]
  half-life: 0.308 h
[17]
  half-life: 0.54 h
[18]
  CLH: 18.3 µL/min/g
[19]
  CLH: 61.6 µL/min/g
[20]
  CLH: 52.2 µL/min/g
[21]
  CLH: 20.6 µL/min/g
[22]
  solubility: 0.46 µM (≈ 0.228 µg/mL)
[23]
  IC50: 3.4 µM

## Cc1ccc(NC(=O)c2ccnc(C(F)(F)F)c2)cc1-c1ccc2c(c1)OC1(CCOCC1)CC2
[1]
  IC50: 0.036 µM
[2]
  GI50: 13 µM

## Cc1ccc(NC(=O)c2ccnc(C(F)(F)F)c2)cc1-c1ccc2c(c1)OC1(CCOCC1)CC2O (stereo unspecified)
[1]
  IC50: 0.019 µM
[2]
  GI50: 9.1 µM

## Cc1ccc(NC(=O)c2ccnc(C(F)(F)F)c2)cc1-c1ccc2c(c1)OC1(CCSCC1)NC2=O
[1]
  IC50: 0.007 µM
[2]
  GI50: 5.6 µM
